Measured values reported in patent publication EP4789715A2, “METHODS FOR TREATING NEOINTIMAL HYPERPLASIA USING F11R/JAM-A INHIBITORS” (The Research Foundation for The State University of New York, priority 2019, dated 2026).
Non-standard residues stand in square brackets, D forms with d. Residues, ends and D or L forms follow the SMILES beside them.

Test system: uremic C57BL/6 mice
Assay: carotid artery ligation (mid-focal LCA stenosis) model of neointimal hyperplasia in 5/6-nephrectomized uremic mice
Type: in vivo
Conditions: for mean Intima Index (ratio of intima area/intima + media area): intraperitoneal injections for 21 days, n=7
Method: Carotid artery ligation was performed on 14 uremic C57BL/6 mice that underwent 5/6 nephrectomy. One week after nephrectomy, partial ligation of the left carotid artery (LCA) was performed on each mouse. Focal LCA stenosis was created by placing 9-0 nylon suture at 1mm proximal to the carotid bifurcation (mid-focal stenosis) around the artery using a 35-gauge blunt needle (World precision Instruments, Inc., Sarasota, FL). Then the needle mandrel was gently removed to restore blood flow.
Mice were fed a regular mouse diet and divided into 2 groups of 7 mice each; the experimental group received Peptide 4D while the Control group received saline injections by intraperitoneal route for 21 days, as this was the time shown in earlier studies to correlate with development of neointimal hyperplasia following partial ligation of the carotid artery.
The mice were then euthanized on day 21 and both LCA and right carotid artery (RCA) were excised for analysis. Specimens were embedded in paraffin. Serial sections (6 µm thick) were collected at 200-µm intervals of the LCA from mid-focal stenosis as well as from the RCA serving as lesion control. Data were analyzed qualitatively and quantitatively using Image J software. The two groups were compared for differences in mean Intima Area and Intima Index, defined as the ratio of intima area divided by intima plus media area.

CC(C)[C@H](NC(=O)[C@H](CO)NC(=O)[C@H](N)CCCCN)C(=O)N[C@H](C(=O)N[C@H](CCCNC(=N)N)C(=O)N[C@@H](CCC(=O)O)C(=O)N[C@@H](CC(=O)O)C(=O)N[C@H](C(=O)NCC(=O)N[C@H](C(=O)N[C@@H](Cc1ccc(O)cc1)C(=O)N[C@H](C(=O)N[C@@H](CS)C(N)=O)[C@@H](C)O)[C@@H](C)O)[C@@H](C)O)[C@@H](C)O [Peptide 4D, NH2-(dK)-SVT-(dR)-EDTGTYTC-CONH2] (H-[dK]SVT[dR]EDTGTYTC-NH2)
experimental mice LCA with severe neointimal hyperplasia (7 treated mice, day 21, all LCA in control mice developed severe neointimal hyperplasia, two with complete luminal occlusion): only one had severe neointimal hyperplasia | mean Intima Index (ratio of intima area/intima + media area) (average from 10 LCA locations, FIG. 6, control (0.27 + 0.13), p = 0.0079): significantly less mean intima/intima + media ratio | mean Intima Index (ratio of intima area/intima + media area) (average from 10 LCA locations, FIG. 6, control (0.27 + 0.13), p = 0.0079, listed as peptide 4D): 0.089 + 0.081 | arterial lumen (H&E-stained cross sections of the carotid artery) (different distances from the point of ligation, compared to occluded lumens in the controls, FIGs. 1A-1B): arterial lumen is preserved | mean Intima Index (ratio of intima area/intima + media area) (from 1 LCA location with biggest focal stenosis, FIG. 7, control (0.47 + 0.15), p = 0.039): 0.31 + 0.14 | intima area relative to distance from the ligation point (mid focal stenosis morphometry of LCA, 10 locations, treated versus control untreated uremic mice, FIG. 4): significantly smaller | neointimal hyperplasia (uremic C57BL/6 mice, carotid ligation model, 21 days of administration, overall conclusion in words): significantly inhibits neointimal hyperplasia
